According to ChEMBL document CHEMBL5154783, “Design, synthesis, and evaluation of novel 3-thiophene derivatives as potent fungistatic and fungicidal reagents based on a conformational restriction strategy” (Eur J Med Chem, 2022):
In brackets after ≈: the same amount, converted by molar mass. Activity calls are given as the source filed them. No cut-off for these calls is given here.

Tests used:
[1] = Cytotoxicity against human THLE-2 cells assessed as reduction in cell viability incubated for 96 hrs by MTT assay; assay type: toxicity, cell-based
Candida albicans [2] = assay: Antifungal activity against Candida albicans ATCC SC5314 assessed as fungal growth inhibition by CLSI based serial microbroth dilution method; assay type: functional
Candida albicans [3] = assay: Antifungal activity against Candida albicans CPCC400616 assessed as fungal growth inhibition by CLSI based serial microbroth dilution method; assay type: functional
Candida tropicalis = assay: Antifungal activity against Candida tropicalis CGMCC 2.3739 assessed as fungal growth inhibition by CLSI based serial microbroth dilution method; assay type: functional
Cryptococcus neoformans = assay: Antifungal activity against Cryptococcus neoformans CGMCC 2.3161 assessed as fungal growth inhibition by CLSI based serial microbroth dilution method; assay type: functional
Candida parapsilosis = assay: Antifungal activity against Candida parapsilosis GIM 2.190 assessed as fungal growth inhibition by CLSI based serial microbroth dilution method; assay type: functional; details: Lodderomyces parapsilosis
Nakaseomyces glabratus = assay: Antifungal activity against Candida glabrata clinical isolate assessed as fungal growth inhibition by CLSI based serial microbroth dilution method; assay type: functional
Pichia kudriavzevii = assay: Antifungal activity against Candida krusei GIM 2.1 assessed as fungal growth inhibition by CLSI based serial microbroth dilution method; assay type: functional
Aspergillus fumigatus = assay: Antifungal activity against Aspergillus fumigatus CGMCC 3.7795 assessed as fungal growth inhibition by CLSI based serial microbroth dilution method; assay type: functional
Candida albicans [4] = assay: Antifungal activity against FLC and ITC-resistant Candida albicans 17 assessed as fungal growth inhibition by CLSI based serial microbroth dilution method; assay type: functional
Candida albicans [5] = assay: Antifungal activity against FLC-resistant Candida albicans CaR assessed as fungal growth inhibition by CLSI based serial microbroth dilution method; assay type: functional
Candida albicans [6] = assay: Antifungal activity against FLC-resistant Candida albicans 901 assessed as fungal growth inhibition by CLSI based serial microbroth dilution method; assay type: functional
Candida albicans [7] = assay: Antifungal activity against FLC-resistant Candida albicans 904 assessed as fungal growth inhibition by CLSI based serial microbroth dilution method; assay type: functional
Candida albicans [8] = assay: Antifungal activity against FLC-resistant Candida albicans 632 assessed as fungal growth inhibition by CLSI based serial microbroth dilution method; assay type: functional
Candida albicans [9] = assay: Antifungal activity against FLC-resistant Candida albicans 100 assessed as fungal growth inhibition by CLSI based serial microbroth dilution method; assay type: functional
Candida albicans [10] = assay: Antifungal activity against FLC-resistant Candida albicans 103 assessed as fungal growth inhibition by CLSI based serial microbroth dilution method; assay type: functional
Candida albicans [11] = assay: Antifungal activity against FLC-resistant Candida albicans 311 assessed as fungal growth inhibition by CLSI based serial microbroth dilution method; assay type: functional
Cell membrane [12] = assay: Disruption of membrane integrity in Candida albicans ATCC SC5314 assessed as rupture of fungal cells at 16 ug/ml incubated for 48 hrs by transmission electron microscopy; assay type: subcellular; details: dose 16.0 µg/ml
Cell membrane [13] = assay: Disruption of membrane integrity in Candida albicans ATCC SC5314 assessed as cell membrane damage at 16 ug/ml incubated for 48 hrs by transmission electron microscopy; assay type: subcellular; details: dose 16.0 µg/ml
Cell membrane [14] = assay: Disruption of membrane integrity in Candida albicans ATCC SC5314 assessed as endogenous substances leakage at 16 ug/ml incubated for 48 hrs by transmission electron microscopy; assay type: subcellular; details: dose 16.0 µg/ml
Candida albicans [15] = assay: Antibiofilm activity against Candida albicans […] assessed as inhibition of […] metabolism within the biofilm measured after 3 hrs by XTT reduction assay; assay type: functional
Candida albicans [16] = assay: Antibiofilm activity against Candida albicans […] assessed as inhibition of […] metabolism within the biofilm measured after 6 hrs by XTT reduction assay; assay type: functional
Candida albicans [17] = assay: Antibiofilm activity against Candida albicans […] assessed as inhibition of […] metabolism within the biofilm measured after 18 hrs by XTT reduction assay; assay type: functional
Candida albicans [18] = assay: Antibiofilm activity against Candida albicans […] assessed as inhibition of […] metabolism activity in the biofilm measured after 24 hrs by XTT reduction assay; assay type: functional
Candida albicans [19] = assay: Antibiofilm activity against Candida albicans […] assessed as inhibition of […] metabolism activity in the biofilm measured after 48 hrs by XTT reduction assay; assay type: functional
Candida albicans [20] = assay: Fungicidal activity against Candida albicans CPCC400616 measured after 48 hrs; assay type: functional
A549 = assay: Cytotoxicity against human A549 cells assessed as reduction in cell viability incubated for 96 hrs by MTT assay; assay type: functional, cell-based; details: A549, 96 h
MCF7 = assay: Cytotoxicity against human MCF7 cells assessed as reduction in cell viability incubated for 96 hrs by MTT assay; assay type: functional, cell-based; details: MCF7, 96 h
[21] = Cytotoxicity against human HepG2 cells assessed as reduction in cell viability incubated for 96 hrs by MTT assay; assay type: toxicity, cell-based
RAW264.7 = assay: Cytotoxicity against mouse RAW264.7 cells assessed as reduction in cell viability incubated for 96 hrs by MTT assay; assay type: functional, cell-based; details: RAW264.7, 96 h
[22] = Stability of the compound in human plasma assessed as parent compound remaining after […] by LC-MS/MS analysis; assay type: ADME, cell-free; details: read-out: Stability
[23] = Stability of the compound in human plasma assessed as parent compound remaining after 120 hrs by LC-MS/MS analysis; assay type: ADME, cell-free; details: read-out: Stability
[24] = Stability of the compound in human plasma assessed as half life measured after […] by LC-MS/MS analysis; assay type: ADME, cell-free
Cell membrane [25] = assay: Disruption of membrane integrity in Candida albicans ATCC SC5314 assessed as cell wall damage at 16 ug/ml incubated for 48 hrs by transmission electron microscopy; assay type: subcellular; details: dose 16.0 µg/ml

Fc1cccc(F)c1CC1(Cn2ccnc2)COC(c2ccc(-c3ccsc3)cc2)=N1 (centres undefined)
IC50 at 96 h [1]: 22.6 µM | MIC (Candida albicans [2]): 0.06 µg/mL (≈ 0.138 µM) | MIC (Candida albicans [3]): 0.015 µg/mL (≈ 0.0344 µM) | MIC (Candida tropicalis): 0.015 µg/mL (≈ 0.0344 µM) | MIC (Cryptococcus neoformans): 0.125 µg/mL (≈ 0.287 µM) | MIC (Candida parapsilosis): 0.125 µg/mL (≈ 0.287 µM) | MIC (Nakaseomyces glabratus): 0.06 µg/mL (≈ 0.138 µM) | MIC (Pichia kudriavzevii): 0.25 µg/mL (≈ 0.574 µM) | MIC (Aspergillus fumigatus): 8 µg/mL (≈ 18.4 µM) | MIC (Candida albicans [4]): 8 µg/mL (≈ 18.4 µM) | MIC (Candida albicans [5]): 1 µg/mL (≈ 2.3 µM) | MIC (Candida albicans [6]): 0.5 µg/mL (≈ 1.15 µM) | MIC (Candida albicans [7]): 2 µg/mL (≈ 4.59 µM) | MIC (Candida albicans [8]): 4 µg/mL (≈ 9.18 µM) | MIC (Candida albicans [9]): 4 µg/mL (≈ 9.18 µM) | MIC (Candida albicans [10]): 2 µg/mL (≈ 4.59 µM) | MIC (Candida albicans [11]): 8 µg/mL (≈ 18.4 µM) | Activity (Cell membrane [12]): Active | Activity (Cell membrane [13]): Active | Activity (Cell membrane [14]): Active | MIC50 (Candida albicans [15]): 0.25 µg/mL (≈ 0.574 µM) | MIC50 (Candida albicans [16]): 0.5 µg/mL (≈ 1.15 µM) | MIC50 (Candida albicans [17]): 4 µg/mL (≈ 9.18 µM) | MIC50 (Candida albicans [18]): 32 µg/mL (≈ 73.5 µM) | MIC50 (Candida albicans [19]): > 64 µg/mL | MFC (Candida albicans [20]): 1 µg/mL (≈ 2.3 µM) | IC50 (A549): > 50 µM | IC50 (MCF7): > 50 µM | IC50 at 96 h [21]: 34.2 µM | IC50 (RAW264.7): 7.58 µM | remaining [22]: 88.5% | remaining at 120 h [23]: 90.1% | half-life [24]: > 4.8 h | Activity (Cell membrane [25]): Active

c1ccc(CC2(Cn3ccnc3)COC(c3ccc(-c4ccsc4)cc3)=N2)cc1 (centres undefined)
MIC (Candida albicans [2]): 0.5 µg/mL (≈ 1.25 µM) | MIC (Candida albicans [3]): 0.25 µg/mL (≈ 0.626 µM) | MIC (Candida tropicalis): 0.25 µg/mL (≈ 0.626 µM) | MIC (Cryptococcus neoformans): 8 µg/mL (≈ 20 µM) | MIC (Candida parapsilosis): 0.5 µg/mL (≈ 1.25 µM) | MIC (Nakaseomyces glabratus): > 64 µg/mL | MIC (Pichia kudriavzevii): > 64 µg/mL | MIC (Aspergillus fumigatus): 16 µg/mL (≈ 40 µM) | MIC (Candida albicans [4]): 4 µg/mL (≈ 10 µM) | MIC (Candida albicans [5]): 32 µg/mL (≈ 80.1 µM) | MIC (Candida albicans [6]): 4 µg/mL (≈ 10 µM) | MIC (Candida albicans [7]): 2 µg/mL (≈ 5.01 µM) | MIC (Candida albicans [8]): 16 µg/mL (≈ 40 µM) | MIC (Candida albicans [9]): 2 µg/mL (≈ 5.01 µM) | MIC (Candida albicans [10]): 2 µg/mL (≈ 5.01 µM) | MIC (Candida albicans [11]): 4 µg/mL (≈ 10 µM)

Fc1ccccc1CC1(Cn2ccnc2)COC(c2ccc(-c3ccsc3)cc2)=N1 (centres undefined)
MIC (Candida albicans [2]): 0.125 µg/mL (≈ 0.299 µM) | MIC (Candida albicans [3]): 0.5 µg/mL (≈ 1.2 µM) | MIC (Candida tropicalis): 0.125 µg/mL (≈ 0.299 µM) | MIC (Cryptococcus neoformans): 16 µg/mL (≈ 38.3 µM) | MIC (Candida parapsilosis): 0.5 µg/mL (≈ 1.2 µM) | MIC (Nakaseomyces glabratus): 16 µg/mL (≈ 38.3 µM) | MIC (Pichia kudriavzevii): 1 µg/mL (≈ 2.4 µM) | MIC (Aspergillus fumigatus): 32 µg/mL (≈ 76.6 µM) | MIC (Candida albicans [4]): 8 µg/mL (≈ 19.2 µM) | MIC (Candida albicans [5]): 32 µg/mL (≈ 76.6 µM) | MIC (Candida albicans [6]): 2 µg/mL (≈ 4.79 µM) | MIC (Candida albicans [7]): 2 µg/mL (≈ 4.79 µM) | MIC (Candida albicans [8]): 8 µg/mL (≈ 19.2 µM) | MIC (Candida albicans [9]): 2 µg/mL (≈ 4.79 µM) | MIC (Candida albicans [10]): 1 µg/mL (≈ 2.4 µM) | MIC (Candida albicans [11]): 4 µg/mL (≈ 9.58 µM)

c1ccc(CC2(Cn3ccnc3)COC(c3ccc4c(c3)OCO4)=N2)cc1 (centres undefined)
MIC (Candida albicans [2]): > 64 µg/mL | MIC (Candida albicans [3]): > 64 µg/mL | MIC (Candida tropicalis): > 64 µg/mL | MIC (Cryptococcus neoformans): > 64 µg/mL | MIC (Candida parapsilosis): > 64 µg/mL | MIC (Nakaseomyces glabratus): > 64 µg/mL | MIC (Pichia kudriavzevii): > 64 µg/mL | MIC (Aspergillus fumigatus): > 64 µg/mL

Fc1cccc(CC2(Cn3ccnc3)COC(c3ccc(-c4ccsc4)cc3)=N2)c1 (centres undefined)
MIC (Candida albicans [2]): > 64 µg/mL | MIC (Candida albicans [3]): > 64 µg/mL | MIC (Candida tropicalis): > 64 µg/mL | MIC (Cryptococcus neoformans): > 64 µg/mL | MIC (Candida parapsilosis): > 64 µg/mL | MIC (Nakaseomyces glabratus): > 64 µg/mL | MIC (Pichia kudriavzevii): 1 µg/mL (≈ 2.4 µM) | MIC (Aspergillus fumigatus): > 64 µg/mL

Fc1cccc(F)c1CC1(Cn2cnnn2)COC(c2ccc(-c3ccsc3)cc2)=N1 (centres undefined)
MIC (Candida albicans [2]): 16 µg/mL (≈ 36.6 µM) | MIC (Candida albicans [3]): 16 µg/mL (≈ 36.6 µM) | MIC (Candida tropicalis): > 64 µg/mL | MIC (Cryptococcus neoformans): > 64 µg/mL | MIC (Candida parapsilosis): > 64 µg/mL | MIC (Nakaseomyces glabratus): > 64 µg/mL | MIC (Pichia kudriavzevii): > 64 µg/mL | MIC (Aspergillus fumigatus): > 64 µg/mL

FC(F)(F)c1cccc(CC2(Cn3ccnc3)COC(c3ccc(-c4ccsc4)cc3)=N2)c1 (centres undefined)
MIC (Candida albicans [2]): > 64 µg/mL | MIC (Candida albicans [3]): > 64 µg/mL | MIC (Candida tropicalis): > 64 µg/mL | MIC (Cryptococcus neoformans): > 64 µg/mL | MIC (Candida parapsilosis): > 64 µg/mL | MIC (Nakaseomyces glabratus): > 64 µg/mL | MIC (Pichia kudriavzevii): > 64 µg/mL | MIC (Aspergillus fumigatus): > 64 µg/mL

FC(F)(F)c1ccccc1CC1(Cn2ccnc2)COC(c2ccc(-c3ccsc3)cc2)=N1 (centres undefined)
MIC (Candida albicans [2]): 0.125 µg/mL (≈ 0.267 µM) | MIC (Candida albicans [3]): 8 µg/mL (≈ 17.1 µM) | MIC (Candida tropicalis): 16 µg/mL (≈ 34.2 µM) | MIC (Cryptococcus neoformans): > 64 µg/mL | MIC (Candida parapsilosis): > 64 µg/mL | MIC (Nakaseomyces glabratus): 16 µg/mL (≈ 34.2 µM) | MIC (Pichia kudriavzevii): > 64 µg/mL | MIC (Aspergillus fumigatus): 32 µg/mL (≈ 68.4 µM)

FC(F)(F)Oc1ccc(CC2(Cn3ccnc3)COC(c3ccc(-c4ccsc4)cc3)=N2)cc1 (centres undefined)
MIC (Candida albicans [2]): > 64 µg/mL | MIC (Candida albicans [3]): > 64 µg/mL | MIC (Candida tropicalis): > 64 µg/mL | MIC (Cryptococcus neoformans): > 64 µg/mL | MIC (Candida parapsilosis): > 64 µg/mL | MIC (Nakaseomyces glabratus): > 64 µg/mL | MIC (Pichia kudriavzevii): > 64 µg/mL | MIC (Aspergillus fumigatus): > 64 µg/mL
